The text below walks through data of patent US11578069B2, “Compounds for inhibition of α4 β7 integrin” (Gilead Sciences, Inc., priority 2019, dated 2023).

Experiment [1] addresses T1, α4β7 integrin (Homo sapiens, UniProt P13612+P26010).
T1 construct: monitoring the capture of α4β7 integrin expressing cells; endogenous in cells; host or cells: RPMI8866
T1 sequence (P13612 34-1032): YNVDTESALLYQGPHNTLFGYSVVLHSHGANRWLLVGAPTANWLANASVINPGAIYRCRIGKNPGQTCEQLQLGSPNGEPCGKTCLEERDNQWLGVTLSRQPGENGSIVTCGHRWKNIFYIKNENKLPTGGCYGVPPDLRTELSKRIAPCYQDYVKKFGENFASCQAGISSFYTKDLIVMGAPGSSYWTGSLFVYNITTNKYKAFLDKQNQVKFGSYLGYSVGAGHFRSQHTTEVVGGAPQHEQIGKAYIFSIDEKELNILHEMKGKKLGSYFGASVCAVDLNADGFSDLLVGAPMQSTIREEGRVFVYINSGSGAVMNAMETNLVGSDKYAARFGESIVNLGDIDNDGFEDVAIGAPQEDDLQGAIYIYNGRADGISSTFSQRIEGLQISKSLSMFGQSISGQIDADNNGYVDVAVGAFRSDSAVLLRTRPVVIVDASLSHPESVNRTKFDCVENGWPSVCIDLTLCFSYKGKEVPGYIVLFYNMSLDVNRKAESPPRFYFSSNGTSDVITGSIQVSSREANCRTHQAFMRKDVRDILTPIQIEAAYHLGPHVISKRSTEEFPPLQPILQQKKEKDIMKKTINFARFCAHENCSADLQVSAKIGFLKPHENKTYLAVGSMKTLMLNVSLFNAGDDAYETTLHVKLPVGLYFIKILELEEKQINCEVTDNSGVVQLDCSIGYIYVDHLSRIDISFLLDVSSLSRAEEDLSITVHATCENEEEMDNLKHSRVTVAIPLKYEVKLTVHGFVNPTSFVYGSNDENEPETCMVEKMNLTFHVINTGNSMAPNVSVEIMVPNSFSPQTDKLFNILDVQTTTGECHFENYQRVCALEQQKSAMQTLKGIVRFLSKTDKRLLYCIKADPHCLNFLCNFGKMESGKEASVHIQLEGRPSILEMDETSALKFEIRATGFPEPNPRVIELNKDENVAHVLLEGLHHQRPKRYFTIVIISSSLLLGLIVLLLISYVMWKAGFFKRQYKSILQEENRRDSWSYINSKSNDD
T1 sequence (P26010 20-798): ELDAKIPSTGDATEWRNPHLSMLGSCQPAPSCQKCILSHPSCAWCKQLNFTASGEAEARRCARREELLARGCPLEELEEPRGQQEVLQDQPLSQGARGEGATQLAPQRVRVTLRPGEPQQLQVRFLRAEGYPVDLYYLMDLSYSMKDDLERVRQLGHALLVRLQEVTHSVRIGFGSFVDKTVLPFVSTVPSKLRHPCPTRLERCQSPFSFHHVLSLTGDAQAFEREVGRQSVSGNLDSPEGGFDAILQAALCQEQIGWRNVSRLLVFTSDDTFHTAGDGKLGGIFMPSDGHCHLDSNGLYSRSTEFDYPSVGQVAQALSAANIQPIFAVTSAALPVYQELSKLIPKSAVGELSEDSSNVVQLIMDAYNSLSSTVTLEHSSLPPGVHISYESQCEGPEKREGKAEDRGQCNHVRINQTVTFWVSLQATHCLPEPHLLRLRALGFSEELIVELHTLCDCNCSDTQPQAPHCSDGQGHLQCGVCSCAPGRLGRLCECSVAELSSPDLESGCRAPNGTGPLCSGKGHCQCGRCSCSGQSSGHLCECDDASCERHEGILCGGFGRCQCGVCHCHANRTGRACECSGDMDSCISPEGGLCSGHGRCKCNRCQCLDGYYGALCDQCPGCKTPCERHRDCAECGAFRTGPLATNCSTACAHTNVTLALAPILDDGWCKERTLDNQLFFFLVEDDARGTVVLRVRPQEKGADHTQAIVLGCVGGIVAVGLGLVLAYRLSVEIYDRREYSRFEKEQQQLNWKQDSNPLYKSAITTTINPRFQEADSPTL
Briefly: α4β7 Integrin Cell Capture Assay. It counts as cell-based. To be noted: capture of α4β7 integrin expressing RPM18866 cells on MadCAM-1 extracellular domain-coated plate. Here is the method: The potency of inhibitors in preventing α4β7 integrin interaction with MadCAM-1 was measured by monitoring the capture of α4β7 integrin expressing cells on a recombinant MadCAM-1 extracellular domain-coated plate.
384-well plates (Corning 3702) were coated with MadCAM-1 extracellular domain by dispensing 20 μL of MAdCAM-1 at 1.0 μg/mL per well and incubating overnight at 4° C. The plates were then washed with PBS and blocked with 3% BSA for 2 hours before being washed again.
(§1) RPM18866 cells were spun down and re-suspended in assay medium (DMEM+0.5% FBS+0.5 mM MnCl2) at a density of 0.5×10^6 cells/mL. The cells were then dispensed (60 μL/well) to a 384-well plate (Greiner 781280) that was previously spotted with 60 nL of test compound per well. The plates were incubated at 37° C. for 1 hour. 50 μL of cells were transferred to the blocked, MadCAM-1-coated plates and incubated for 30 minutes at 37° C. 10 μL of 12% glutaraldehyde containing Hoechst 33342 (0.06 mg/mL) was added to the cells (2% glutaraldehyde and 0.01 mg/mL final concentrations). The plates were incubated for 90 minutes at room temperature. The plates were then washed 3 times with 70 μL of PBS per well and imaged on a Cellomics ArrayScan instrument. The cells that were bound to the plate were counted and plotted against the compound concentration to determine the EC50 of the test compounds.

In experiment [2] the target is T2, α4β1 integrin (Homo sapiens, UniProt P05556+P13612).
T2 construct: monitoring the capture of α4β1 expressing cells; endogenous in cells; host or cells: Jurkat
T2 sequence (P05556 21-798, one chain of several): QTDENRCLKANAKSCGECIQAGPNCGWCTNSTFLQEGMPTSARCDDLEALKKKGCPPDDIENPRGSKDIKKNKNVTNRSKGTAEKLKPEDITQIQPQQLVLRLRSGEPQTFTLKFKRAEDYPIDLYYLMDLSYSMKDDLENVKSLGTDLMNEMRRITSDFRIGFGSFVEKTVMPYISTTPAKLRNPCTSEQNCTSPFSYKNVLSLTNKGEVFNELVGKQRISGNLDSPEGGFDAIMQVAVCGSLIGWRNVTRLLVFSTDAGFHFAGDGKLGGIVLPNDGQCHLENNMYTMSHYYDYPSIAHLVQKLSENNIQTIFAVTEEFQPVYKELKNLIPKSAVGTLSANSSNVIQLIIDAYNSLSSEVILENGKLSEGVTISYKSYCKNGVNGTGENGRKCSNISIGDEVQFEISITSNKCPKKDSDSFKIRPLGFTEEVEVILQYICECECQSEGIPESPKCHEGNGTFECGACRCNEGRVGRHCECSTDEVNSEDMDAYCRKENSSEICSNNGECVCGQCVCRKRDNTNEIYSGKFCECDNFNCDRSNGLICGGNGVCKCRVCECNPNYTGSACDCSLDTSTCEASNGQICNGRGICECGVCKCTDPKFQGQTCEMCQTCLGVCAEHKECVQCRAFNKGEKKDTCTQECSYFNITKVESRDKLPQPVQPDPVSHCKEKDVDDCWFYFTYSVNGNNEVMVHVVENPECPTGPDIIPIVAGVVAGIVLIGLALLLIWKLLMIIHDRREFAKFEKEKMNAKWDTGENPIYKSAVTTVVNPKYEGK
Briefly: α4β1 Cell Capture Assay. It counts as cell-based. Conditions: capture of α4β1 expressing Jurkat cells on VCAM-1 extracellular domain-coated plate. Here is the method: The potency of inhibitors in preventing α4β1 integrin interaction with VCAM-1 was measured by monitoring the capture of α4β1 expressing cells to a recombinant VCAM-1 extracellular domain-coated plate.
384-well plates (Corning 3702) were coated with VCAM-1 extracellular domain by dispensing 20 μL of VCAM-1 at 0.5 μg/ml per well and incubating overnight at 4° C. The plates were then washed with PBS and blocked with 3% BSA for 2 hours before being washed again.
as §1, with “Jurkat cells” for “RPM18866 cells”, “0.5×10^6 cells/ml.” for “0.5×10^6 cells/mL.”, “blocked, VCAM-1-coated” for “blocked, MadCAM-1-coated”, “10 μl” for “10 μL”, “0.01 mg/ml Hoechst 33342” for “0.01 mg/mL”

The term EC50 denotes the concentration at which the effect is half-maximal.

With `Cc1cc(N2CCOC[C@@H]2CC(F)F)cc(F)c1C(=O)N[C@@H](Cc1ccc(-n2c(=O)c3c(n(C)c2=O)CCOC3)cc1)C(=O)O` [Example 57, (S)-2-(4-((S)-3-(2,2-difluoroethyl)morpholino)-2-fluoro-6-methylbenzamido)-3-(4-(1-methyl-2,4-dioxo-1,5,7,8-tetrahydro-2H-pyrano[4,3-d]pyrimidin-3(4H)-yl)phenyl)propanoic acid], the results for the EC50 in experiment [1] (Table 1) and in experiment [2] (Table 1) were 0.2 nM and 2.8 nM, respectively.
For the molecule `Cc1cc(N2CCOC[C@@H]2C(F)(F)F)cc(F)c1C(=O)N[C@@H](Cc1ccc(-n2c(=O)c3ccncc3n(C)c2=O)c(C(F)(F)F)c1)C(=O)O` (atropisomer, axis not shown) [Example 90], the EC50 in experiment [1] (Table 2) came out at 0.7 nM; in experiment [2] (Table 2), 9.7 nM.
Consider `Cc1cc(C(F)(F)F)c(-c2ccc(C[C@H](NC(=O)c3c(F)cc(N4CCOC[C@@H]4C(F)(F)F)cc3F)C(=O)O)cc2)c(=O)n1C` [Example 3, (S)-2-(2,6-difluoro-4-((R)-3-(trifluoromethyl)morpholino)benzamido)-3-(4-(1,6-dimethyl-2-oxo-4-(trifluoromethyl)-1,2-dihydropyridin-3-yl)phenyl)propanoic acid], for which the EC50 was 0.5 nM in experiment [1] (Table 1) and 18.5 nM in experiment [2] (Table 1).
Take `Cc1cc(N2CCOC[C@@H]2CC(F)F)cc(F)c1C(=O)N[C@@H](Cc1ccc(-n2c(=O)c3ccncc3n(C)c2=O)nc1)C(=O)O` [Example 69, (S)-2-(4-((S)-3-(2,2-difluoroethyl)morpholino)-2-fluoro-6-methylbenzamido)-3-(6-(1-methyl-2,4-dioxo-1,4-dihydropyrido[3,4-d]pyrimidin-3(2H)-yl)pyridin-3-yl)propanoic acid]: the EC50 in experiment [1] (Table 1) was 0.2 nM; in experiment [2] (Table 1), 20.8 nM.
With `Cc1cc(N2CCOC[C@@H]2C(F)(F)F)cc(F)c1C(=O)N[C@@H](Cc1ccc(-n2c(=O)c3c(n(C)c2=O)CCOC3)nc1)C(=O)O` [Example 68, (S)-2-(2-fluoro-6-methyl-4-((R)-3-(trifluoromethyl)morpholino)benzamido)-3-(6-(1-methyl-2,4-dioxo-1,5,7,8-tetrahydro-2H-pyrano[4,3-d]pyrimidin-3(4H)-yl)pyridin-3-yl)propanoic acid], the results for the EC50 in experiment [1] (Table 1) and in experiment [2] (Table 1) were 0.3 nM and 14.9 nM, respectively.
With `Cc1cc(N2CCOC[C@@H]2C(F)(F)F)cc(F)c1C(=O)N[C@@H](Cc1ccc(-n2c(=O)c3c(C#N)cccc3n(C)c2=O)nc1)C(=O)O` [Example 72], the EC50 in experiment [1] (Table 2) amounted to 0.18 nM; in experiment [2] (Table 2), 4 nM.
On the same counts, the results for `Cc1cc(C[C@H](NC(=O)c2c(F)cc(N3CCOC[C@@H]3C(F)(F)F)cc2F)C(=O)O)ccc1-c1c(C(F)(F)F)cc(C)n(C)c1=O` [Example 29] are 0.6 nM and 29 nM.
As for `Cc1cc(N2CCOC[C@@H]2C(F)(F)F)cc(F)c1C(=O)N[C@@H](Cc1ccc(-n2c(=O)c3c(n(C)c2=O)COCC3)cc1)C(=O)O` [Example 63, (S)-2-(2-fluoro-6-methyl-4-((R)-3-(trifluoromethyl)morpholino)benzamido)-3-(4-(1-methyl-2,4-dioxo-1,2,4,5,6,8-hexahydro-3H-pyrano[3,4-d]pyrimidin-3-yl)phenyl)propanoic acid], the EC50 was determined as 0.1 nM in experiment [1] (Table 1) and 3.7 nM in experiment [2] (Table 1).
In the case of `Cc1cc(N2CCOC[C@@H]2C(F)(F)F)cc(F)c1C(=O)N[C@@H](Cc1ccc(-n2c(=O)c3ccncc3n(C)c2=O)c(OC(F)(F)F)c1)C(=O)O` (atropisomer, axis not shown) [Example 92], the results for the EC50 in experiment [1] (Table 2) and in experiment [2] (Table 2) were 0.2 nM and 1.3 nM, respectively.
For `Cc1cc(N2CCOC[C@@H]2CC(F)(F)F)cc(F)c1C(=O)N[C@@H](Cc1ccc(-n2c(=O)c3ccncc3n(C)c2=O)nc1)C(=O)O` [Example 87], the EC50 in experiment [1] (Table 2) was 0.9 nM; in experiment [2] (Table 2) it was 19.7 nM.
With `Cc1cc(N2CCOC[C@@H]2C(F)(F)F)cc(F)c1C(=O)N[C@@H](Cc1ccc(-n2c(=O)c3ccncc3n(C)c2=O)cn1)C(=O)O` [Example 23, (S)-2-(2-fluoro-6-methyl-4-((R)-3-(trifluoromethyl)morpholino)benzamido)-3-(5-(1-methyl-2,4-dioxo-1,4-dihydropyrido[3,4-d]pyrimidin-3(2H)-yl)pyridin-2-yl)propanoic acid], the EC50 in experiment [1] (Table 1) came to 0.2 nM; in experiment [2] (Table 1), 9.8 nM.
Turning to `Cn1c(=O)c(-c2ccc(C[C@H](NC(=O)c3c(F)cc(N4CCOC[C@@H]4C(F)(F)F)cc3F)C(=O)O)cc2)cc2cnccc21` [Example 35], the EC50 was 1.1 nM in experiment [1] (Table 2) and 34.1 nM in experiment [2] (Table 2).
On the same counts, the results for `CC[C@@H](Nc1cc(F)c(C(=O)N[C@@H](Cc2ccc(-c3c(C)n(C)c(=O)n(C)c3=O)cc2)C(=O)O)c(F)c1)C(F)(F)F` [Example 32] are 1.2 nM and 14.4 nM.
As for `Cc1cc(C(F)(F)F)c(-c2ccc(C[C@H](NC(=O)c3c(F)cc(N4CCOC[C@@H]4C(F)(F)F)cc3F)C(=O)O)cc2F)c(=O)n1C` [Example 6, (S)-2-(2,6-difluoro-4-((R)-3-(trifluoromethyl)morpholino)benzamido)-3-(4-(1,6-dimethyl-2-oxo-4-(trifluoromethyl)-1,2-dihydropyridin-3-yl)-3-fluorophenyl)propanoic acid], the EC50 in experiment [1] (Table 1) turned out to be 0.3 nM; in experiment [2] (Table 1), 9.9 nM.
